In ChEMBL document CHEMBL3885881, “DrugMatrix”:

Tests used:
[1] = organism: Rattus norvegicus; assay type: toxicity, organism-based, Sprague-Dawley; details: in vivo, po, 200 mg/kg, 24 h, route oral GAVAGE, dose level High, time 1 day, vehicle .5 % CMC
Description: DrugMatrix - Regimen: Single

[2] = organism: Rattus norvegicus; test: DrugMatrix - Regimen: Daily Repeat; assay type: toxicity, organism-based, Sprague-Dawley; design: regimen Daily Repeat, gender Male, age 6-8 weeks; details: in vivo, po, 200 mg/kg, […], route oral GAVAGE, dose level High, time 14 day, vehicle .5 % CMC

CC(C)=C1CC[C@@H](C)CC1=O [PULEGONE]
ABSOLUTE EOSINOPHIL ([1]; tissue Blood): 46 CELLS/uL | ABSOLUTE LYMPHOCYTE ([1]; tissue Blood): 13023.67 CELLS/uL | ABSOLUTE MONOCYTE ([1]; tissue Blood): 245.33 CELLS/uL | ABSOLUTE SEGMENTED NEUTROPHIL ([1]; tissue Blood): 1251.67 CELLS/uL | BASOPHIL ([1]; tissue Blood): 0% | EOSINOPHIL ([1]; tissue Blood): 0.33% | ERYTHROCYTE COUNT ([1]; tissue Blood): 5.98 x10E6/uL | HEMATOCRIT ([1]; tissue Blood): 37.73% | HEMOGLOBIN ([1]; tissue Blood): 13.9 G/DL | LEUKOCYTE COUNT ([1]; tissue Blood): 14.57 x10E3/uL | LYMPHOCYTE ([1]; tissue Blood): 90% | MEAN CORPUSCULAR HEMOGLOBIN ([1]; tissue Blood): 23.43 pg | MEAN CORPUSCULAR HEMOGLOBIN CONCENTRATION ([1]; tissue Blood): 37 G/DL | MEAN CORPUSCULAR VOLUME ([1]; tissue Blood): 63.4 fL | MONOCYTE ([1]; tissue Blood): 1.67% | NEUTROPHIL ([1]; tissue Blood): 8% | NUCLEATED RED BLOOD CELLS ([1]; tissue Blood): 0 /100WBC | PLATELET COUNT ([1]; tissue Blood): 961.67 x10E3/uL | ALANINE AMINOTRANSFERASE ([1]; tissue Plasma): 52.67 u/L | ALBUMIN ([1]; tissue Plasma): 4.3 G/DL | ALKALINE PHOSPHATASE ([1]; tissue Plasma): 476.33 u/L | ASPARTATE AMINOTRANSFERASE ([1]; tissue Plasma): 110 u/L | BLOOD UREA NITROGEN ([1]; tissue Plasma): 12.33 mg/dL | CARBON DIOXIDE ([1]; tissue Plasma): 23.67 mmol/L | CHLORIDE ([1]; tissue Plasma): 103.5 MEQ/L | CHOLESTEROL ([1]; tissue Plasma): 77.67 mg/dL | CREATININE ([1]; tissue Plasma): 0.14 mg/dL | GLUCOSE ([1]; tissue Plasma): 133.33 mg/dL | LACTATE DEHYDROGENASE ([1]; tissue Plasma): 244 u/L | LIPASE ([1]; tissue Plasma): 10 u/L | PHOSPHORUS ([1]; tissue Plasma): 12.8 mg/dL | POTASSIUM ([1]; tissue Plasma): 6.49 MEQ/L | SODIUM ([1]; tissue Plasma): 142.65 MEQ/L | TOTAL BILIRUBIN ([1]; tissue Plasma): 0.23 mg/dL | TOTAL PROTEIN ([1]; tissue Plasma): 6 G/DL | URIC ACID ([1]; tissue Plasma): 1.8 mg/dL | ABSOLUTE BASOPHIL ([2]; tissue Blood): 0 CELLS/uL | ABSOLUTE EOSINOPHIL ([2]; tissue Blood): 211.4 CELLS/uL | ABSOLUTE LYMPHOCYTE ([2]; tissue Blood): 21257.2 CELLS/uL | ABSOLUTE MONOCYTE ([2]; tissue Blood): 665.8 CELLS/uL | ABSOLUTE SEGMENTED NEUTROPHIL ([2]; tissue Blood): 3705.6 CELLS/uL | BASOPHIL ([2]; tissue Blood): 0% | EOSINOPHIL ([2]; tissue Blood): 0.8% | ERYTHROCYTE COUNT ([2]; tissue Blood): 6.34 x10E6/uL | HEMATOCRIT ([2]; tissue Blood): 37.3% | HEMOGLOBIN ([2]; tissue Blood): 13.88 G/DL | LEUKOCYTE COUNT ([2]; tissue Blood): 25.84 x10E3/uL | LYMPHOCYTE ([2]; tissue Blood): 82.2% | MEAN CORPUSCULAR HEMOGLOBIN ([2]; tissue Blood): 21.94 pg | MEAN CORPUSCULAR HEMOGLOBIN CONCENTRATION ([2]; tissue Blood): 37.2 G/DL | MEAN CORPUSCULAR VOLUME ([2]; tissue Blood): 58.94 fL | MONOCYTE ([2]; tissue Blood): 2.6% | NEUTROPHIL ([2]; tissue Blood): 14.4% | NUCLEATED RED BLOOD CELLS ([2]; tissue Blood): 0 /100WBC | PLATELET COUNT ([2]; tissue Blood): 1150.2 x10E3/uL | ALANINE AMINOTRANSFERASE ([2]; tissue Plasma): 78.8 u/L | ALBUMIN ([2]; tissue Plasma): 4.54 G/DL | ALKALINE PHOSPHATASE ([2]; tissue Plasma): 518 u/L | ASPARTATE AMINOTRANSFERASE ([2]; tissue Plasma): 93.8 u/L | BLOOD UREA NITROGEN ([2]; tissue Plasma): 14.2 mg/dL | CARBON DIOXIDE ([2]; tissue Plasma): 27.4 mmol/L | CHLORIDE ([2]; tissue Plasma): 102.2 MEQ/L | CHOLESTEROL ([2]; tissue Plasma): 65 mg/dL | CREATININE ([2]; tissue Plasma): 0.18 mg/dL | GLUCOSE ([2]; tissue Plasma): 128.2 mg/dL | LACTATE DEHYDROGENASE ([2]; tissue Plasma): 147 u/L | LIPASE ([2]; tissue Plasma): 11 u/L | PHOSPHORUS ([2]; tissue Plasma): 12.52 mg/dL | POTASSIUM ([2]; tissue Plasma): 7 MEQ/L | SODIUM ([2]; tissue Plasma): 148.6 MEQ/L | TOTAL BILIRUBIN ([2]; tissue Plasma): 0.32 mg/dL | TOTAL PROTEIN ([2]; tissue Plasma): 6.52 G/DL | URIC ACID ([2]; tissue Plasma): 2.08 mg/dL
